Consider eleven molecules from ChEMBL document CHEMBL4138131, “Design, synthesis, kinetic mechanism and molecular docking studies of novel 1-pentanoyl-3-arylthioureas as inhibitors of mushroom tyrosinase and free radical scavengers” (Eur J Med Chem, 2017).

As a reminder, the IC50 is the concentration that inhibits the measured activity by half. Broadly, the Ki is a measure of affinity in units of concentration, obtained from inhibition or displacement. Read a low Ki as a stronger hold on the target. One may read the Km as the concentration of substrate that gives half-maximal velocity.

For data set [1], the target named is T1, Tyrosinase (Agaricus bisporus, UniProt O42713).
T1 sequence (O42713 whole entry): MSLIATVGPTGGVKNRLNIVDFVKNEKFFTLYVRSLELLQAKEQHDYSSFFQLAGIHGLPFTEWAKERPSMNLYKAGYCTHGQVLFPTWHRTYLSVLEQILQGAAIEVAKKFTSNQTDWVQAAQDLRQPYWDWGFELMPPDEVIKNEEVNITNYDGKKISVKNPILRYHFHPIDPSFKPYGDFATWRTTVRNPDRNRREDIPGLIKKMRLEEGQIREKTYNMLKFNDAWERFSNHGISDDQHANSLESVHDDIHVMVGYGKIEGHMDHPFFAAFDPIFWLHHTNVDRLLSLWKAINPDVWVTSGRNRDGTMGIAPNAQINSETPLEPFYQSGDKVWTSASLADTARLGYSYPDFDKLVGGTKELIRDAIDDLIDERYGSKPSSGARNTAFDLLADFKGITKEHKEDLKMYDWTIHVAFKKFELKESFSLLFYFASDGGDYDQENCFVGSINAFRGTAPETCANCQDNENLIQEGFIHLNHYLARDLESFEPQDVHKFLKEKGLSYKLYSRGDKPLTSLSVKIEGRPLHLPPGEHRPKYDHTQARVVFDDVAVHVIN
Nature of the data set: Inhibition of mushroom tyrosinase using L-DOPA as substrate preincubated for 10 mins followed by substrate addition measured for 20 mins.

A short description of data set [2]: Antioxidant activity assessed as DPPH radical scavenging activity at 100 ug/ml relative to control. In kind it is functional. (DPPH is a stable violet radical that fades when it is reduced.)
Data set [3] addresses T2, Tyrosinase (Agaricus bisporus) (UniProt O42713).
T2 sequence (whole entry): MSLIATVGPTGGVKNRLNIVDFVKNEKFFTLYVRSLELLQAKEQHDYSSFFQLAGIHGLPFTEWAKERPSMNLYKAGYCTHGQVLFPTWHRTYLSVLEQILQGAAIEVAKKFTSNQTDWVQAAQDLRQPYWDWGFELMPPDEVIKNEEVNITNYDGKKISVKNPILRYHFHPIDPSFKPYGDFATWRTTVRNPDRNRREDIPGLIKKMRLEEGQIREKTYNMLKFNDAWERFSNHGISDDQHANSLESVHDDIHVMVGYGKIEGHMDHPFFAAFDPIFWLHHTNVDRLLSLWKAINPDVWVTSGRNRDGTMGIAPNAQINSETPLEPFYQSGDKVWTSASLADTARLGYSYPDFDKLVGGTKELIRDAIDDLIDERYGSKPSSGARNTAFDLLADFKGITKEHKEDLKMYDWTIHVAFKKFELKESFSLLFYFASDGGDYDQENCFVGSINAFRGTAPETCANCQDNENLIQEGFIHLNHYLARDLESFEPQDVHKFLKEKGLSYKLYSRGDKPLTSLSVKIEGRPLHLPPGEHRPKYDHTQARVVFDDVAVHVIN
Nature of the data set: Non-competitive inhibition of mushroom tyrosinase assessed as 1/Vmax at 1.084 uM using L-DOPA as substrate preincubated for 10 mins followed by substrate addition measured up to 5 mins by Line-weaver Burk plot analysis.

In data set [4] the target is T2, Tyrosinase (Agaricus bisporus). As to the kind of experiment: Non-competitive inhibition of mushroom tyrosinase assessed as 1/Vmax at 2.18 uM using L-DOPA as substrate preincubated for 10 mins followed by substrate addition measured up to 5 mins by Line-weaver Burk plot analysis.
The target is the same in data set [5]. As to the kind of experiment: Non-competitive inhibition of mushroom tyrosinase assessed as 1/Vmax at 0.542 uM using L-DOPA as substrate preincubated for 10 mins followed by substrate addition measured up to 5 mins by Line-weaver Burk plot analysis.
Data set [6] shares this target. Nature of the data set: Irreversible inhibition of mushroom tyrosinase at 0.271 to 4.336 uM using L-DOPA as substrate preincubated for 10 mins followed by substrate addition measured up to 5 mins by Line-weaver Burk plot analysis.
Data set [7] has the same target. Nature of the data set: Potency index ratio of kojic acid IC50 to compound IC50 for inhibition of mushroom tyrosinase.
The target is the same in data set [8]. Nature of the data set: Non-competitive inhibition of mushroom tyrosinase assessed as 1/Vmax at 4.336 uM using L-DOPA as substrate preincubated for 10 mins followed by substrate addition measured up to 5 mins by Line-weaver Burk plot analysis.
Data set [9] concerns the target T1, Tyrosinase. As to the kind of experiment: Non-competitive inhibition of mushroom tyrosinase using L-DOPA as substrate preincubated for 10 mins followed by substrate addition measured up to 5 mins by Dixon plot analysis.
Data set [10] deals with T2, Tyrosinase (Agaricus bisporus). As to the kind of experiment: Non-competitive inhibition of mushroom tyrosinase at 0.271 to 4.336 uM using L-DOPA as substrate preincubated for 10 mins followed by substrate addition measured up to 5 mins by Line-weaver Burk plot analysis.
The target is the same in data set [11]. As to the kind of experiment: Non-competitive inhibition of mushroom tyrosinase assessed as 1/Vmax at 0.271 uM using L-DOPA as substrate preincubated for 10 mins followed by substrate addition measured up to 5 mins by Line-weaver Burk plot analysis.
Compound in data set [12]: CCCCC(=O)NC(=S)Nc1ccc(OC)cc1
Nature of the data set: Non-competitive inhibition of mushroom tyrosinase assessed as substrate Km at 2.18 uM using L-DOPA as substrate preincubated for 10 mins followed by substrate addition measured up to 5 mins by Line-weaver Burk plot analysis. Particulars: Agaricus bisporus.

Compound in data set [13]: CCCCC(=O)NC(=S)Nc1ccc(OC)cc1
Nature of the data set: Non-competitive inhibition of mushroom tyrosinase assessed as substrate Km at 0.542 uM using L-DOPA as substrate preincubated for 10 mins followed by substrate addition measured up to 5 mins by Line-weaver Burk plot analysis. As to conditions: Agaricus bisporus.

Compound in data set [14]: CCCCC(=O)NC(=S)Nc1ccc(OC)cc1
Nature of the data set: Non-competitive inhibition of mushroom tyrosinase assessed as substrate Km at 1.084 uM using L-DOPA as substrate preincubated for 10 mins followed by substrate addition measured up to 5 mins by Line-weaver Burk plot analysis. Particulars: Agaricus bisporus.

Compound in data set [15]: CCCCC(=O)NC(=S)Nc1ccc(OC)cc1
Nature of the data set: Non-competitive inhibition of mushroom tyrosinase assessed as substrate Km at 4.336 uM using L-DOPA as substrate preincubated for 10 mins followed by substrate addition measured up to 5 mins by Line-weaver Burk plot analysis. Particulars: Agaricus bisporus.

Compound in data set [16]: CCCCC(=O)NC(=S)Nc1ccc(OC)cc1
As to the kind of experiment: Non-competitive inhibition of mushroom tyrosinase assessed as substrate Km at 0.271 uM using L-DOPA as substrate preincubated for 10 mins followed by substrate addition measured up to 5 mins by Line-weaver Burk plot analysis. As to conditions: Agaricus bisporus.

Calls of active or inactive are those of the source. The calls are words filed in the database; no cut-off is given here.

The molecule `CCCCC(=O)NC(=S)Nc1c(C)cc(C)cc1C` had an IC50 against Tyrosinase [1] of 19.7 µM. The outcome in [2] was inactive.

As to `CCCCC(=O)NC(=S)Nc1ccc([N+](=O)[O-])cc1`, the IC50 against Tyrosinase [1] is 7.99 µM. Besides, the result in data set [2] was inactive.

Regarding `CCCCC(=O)NC(=S)Nc1ccc(Br)cc1`, the half-maximal inhibitory concentration (IC50) against Tyrosinase [1] was determined as 3.37 µM. In data set [2], the outcome was inactive.

The molecule `CCCCC(=O)NC(=S)Nc1c(Br)cc(F)cc1Br` gave an IC50 against Tyrosinase [1] of 19.5 µM. Further, in data set [2], the outcome was inactive.

On Tyrosinase [1], `CCCCC(=O)NC(=S)Nc1cccc([N+](=O)[O-])c1` registered an IC50 of 16.6 µM. In addition, the outcome in [2] was inactive.

`CCCCC(=O)NC(=S)Nc1ccc(Br)cc1F`: the IC50 at Tyrosinase [1] is 6.46 µM. Moreover, the outcome in [2] was inactive.

`CCCCC(=O)NC(=S)Nc1ccc([N+](=O)[O-])cc1[N+](=O)[O-]` registered an IC50 on Tyrosinase [1] of 10.1 µM. The result in data set [2] was inactive.

Consider `CCCCC(=O)NC(=S)Nc1cccc(Cl)c1Cl`, for which, on Tyrosinase [1], the IC50 came to 7.75 µM. In data set [2], the outcome was inactive.

As to `CCCCC(=O)NC(=S)Nc1ccc(Cl)cc1`, inhibition against Tyrosinase [1] was half-maximal at 2.32 µM (IC50). For the same molecule, the outcome in data set [2] was inactive.

For the molecule `CCCCC(=O)NC(=S)Nc1ccc(OC)cc1`, the 1/Vmax in [3] is 90500 deltaA/s; in data set [4], 110000 deltaA/s; in [5], 52400 deltaA/s; in data set [8] it was 186000 deltaA/s; in [11], 28600 deltaA/s. Further, 1.57 µM corresponded to half-maximal inhibition at Tyrosinase [1] (IC50). Also, the Activity in data set [2] came to 80%. The inhibition result in [6] and in data set [10] was “Active” in each case. Besides, the Ratio IC50 in data set [7] was 15. On Tyrosinase [9], this molecule gave an inhibition constant (Ki) of 1.1 µM.

B1: Tyrosinase (Agaricus bisporus), O42713 (protein)
chain: MSLIATVGPTGGVKNRLNIVDFVKNEKFFTLYVRSLELLQAKEQHDYSSFFQLAGIHGLPFTEWAKERPSMNLYKAGYCTHGQVLFPTWHRTYLSVLEQILQGAAIEVAKKFTSNQTDWVQAAQDLRQPYWDWGFELMPPDEVIKNEEVNITNYDGKKISVKNPILRYHFHPIDPSFKPYGDFATWRTTVRNPDRNRREDIPGLIKKMRLEEGQIREKTYNMLKFNDAWERFSNHGISDDQHANSLESVHDDIHVMVGYGKIEGHMDHPFFAAFDPIFWLHHTNVDRLLSLWKAINPDVWVTSGRNRDGTMGIAPNAQINSETPLEPFYQSGDKVWTSASLADTARLGYSYPDFDKLVGGTKELIRDAIDDLIDERYGSKPSSGARNTAFDLLADFKGITKEHKEDLKMYDWTIHVAFKKFELKESFSLLFYFASDGGDYDQENCFVGSINAFRGTAPETCANCQDNENLIQEGFIHLNHYLARDLESFEPQDVHKFLKEKGLSYKLYSRGDKPLTSLSVKIEGRPLHLPPGEHRPKYDHTQARVVFDDVAVHVIN
Consider B1, for which the Km in [12], in data set [13], in data set [14], in data set [15] and in [16] was 389 µM each time.
